Tests used:
Type in all cases: cell-based, human
PrSC cells [1] = test: Proliferation of PrSC cells stimulated with angiotensin II, TGFβ or EGF (cell count, Examples 1-3); conditions: 5 days
Description: A Cell Line Derived from Normal Human Prostatic stromal cells, i.e., PrSC cells, was purchased from Sanko Junyaku Co. Ltd. (Normal Human Prostate Stromal Cells, catalogue number CC-2508), and maintained by subculturing them in a phenol red-free RPMI medium under conditions of 5% CO2 and 37° C.
The PrSC cells (10^4 cells) were placed in a 12-well dish, and cultured in a phenol red-free medium containing 0.1% (W/V) BSA under conditions of 5% CO2 and 37° C. for several days. Then, 1 μM or 10 μM of angiotensin II was added. To some wells, CV (10 μM; hereinafter CV was used at this concentration unless otherwise noted) was added as an AIIR blocker 4 hours before adding angiotensin II. Each group contained four wells (n=4). After culturing the cells at 5% CO2 and 37° C. for 5 days, the number of all cells in each of the wells was counted.
The effect of an AIIR blocker was examined in the same manner as Example 1, except for that 10 ng/mL of TGFβ was used in place of angiotensin II.
The effect of an AIIR blocker was examined in the same manner as Example 1, except for that 10 ng/mL of EGF was used in place of angiotensin II.

PrSC cells [2] = test: IL-6 secretion by PrSC cells (CLEIA); conditions: 24 hours
Description: (§1) PrSC cells prepared in the same manner as Example 1, or F-1 or FT-FB cells prepared as described above were placed in a 6-well dish at 10^5 cells per well, cultured at 5% CO2 and 37° C. for 1 day (24 hours), and stimulated by the addition of TGFβ (1 ng/mL), TNFα (1 ng/mL), EGF (2.5 or 10 ng/mL), or angiotensin II (1 μM or 10 μM) (n=3). CV was added as the AIIR blocker to some wells 4 hours before adding the reagents. The culture media were collected 24 hours after adding the reagents, and the concentrations of IL-6 were determined by the CLEIA method.

PrSC cells [3] = test: Telmisartan: proliferation of EGF- or TNFα-stimulated PrSC cells (Example 7); conditions: 5 days, P<0.01
Description: (§2) PrSC cells were plated out on a 12-well dish at 25,000 cells per well, and cultured for 5 days in a phenol red-free F12 culture medium supplemented with 0.1% (W/V) BSA containing EGF (10 ng/mL) or TNFα (1 ng/mL), each alone or in combination with telmisartan (50 μM). Then the number of cells was counted. The group with no additive was used as the control group. Each group contained four wells (n=4).

PrSC cells [4] = test: Olmesartan: proliferation of TNFα-stimulated PrSC cells (Example 6); conditions: TNFα (1 ng/mL) alone; 5 days; P<0.01
Description: as §2, with “20,000” for “25,000”, “containing” for “containing EGF (10 ng/mL) or”, “ng/mL)” for “ng/mL), each”, “olmesartan (1” for “telmisartan (50”

PrSC cells [5] = test: Losartan: proliferation of TNFα-stimulated PrSC cells (Example 9); conditions: 5 days
Description: as §2, with “containing” for “containing EGF (10 ng/mL) or”, “ng/mL) and/or losartan (10” for “ng/mL), each alone or in combination with telmisartan (50”

[6] = test system: MAPK phosphorylation in PrSC cells; test: MAPK phosphorylation in PrSC cells (Western blotting)
Description: Stromal cells (PrSC) were cultured for 24 hours in a phenol red-free F12 medium containing 0.1% (W/V) BSA, to which angiotensin II (10 μM) or TNFα (1 ng/mL) was added each alone or in combination with either CV (10 μM) or losartan (“Los”; 10 μM) by replacing the medium. The cells were collected 10 minutes after the addition, and the total cellular proteins were extracted in the same manner as described in Example 10. Similarly, the cells cultured with no additive and the cells added with either CV or Los alone were processed in parallel. 3,000,000 PrSC cells were used for each sample.
These samples were subjected to Western blotting in the same manner as described in Example 10.

PrSC cells [7] = test: Losartan: proliferation of PrSC cells in 10% FCS (Example 8); conditions: 5 days
Description: PrSC cells were plated out on a 12-well dish at 20,000 cells per well, and cultured for 5 days in a phenol red-free F12 culture medium containing 10% (V/V) FCS and losartan at various concentrations (0, 0.1, 1.0, and 10 μM). Then the number of cells was counted. The group with no additive was used as the control group. Each group contained four wells (n=4).

[8] = test system: MAPK phosphorylation in PC-3 cells; test: MAPK phosphorylation in PC-3 cells cultured in PrSC conditioned media (Western blotting)
Description: Stromal cells (PrSC) were cultured in a phenol red-free F12 medium containing 0.1% (W/V) BSA, to which angiotensin II (10 μM) was added alone or in combination with losartan (“Los”; 10 μM). The culture medium was collected 24 hours after the addition, and used as a conditioned medium (“0.1% BSA-CM”).
Stromal cells (PrSC) were cultured in a phenol red-free F12 medium containing 10% (V/V) FCS, to which CV (10 μM) or losartan (10 μM) was added. The culture medium was collected 24 hours after the addition, and used as a conditioned medium (“10% FCS-CM”) with no addition of angiotensin II. 10% FCS-CM with no additive was also prepared in the same manner.
3,000,000 PrSC cells were used for each of the above 10-1 and 10-2
PC3 cells (prostate cancer cells) were cultured for 24 hours in a phenol red-free F12 medium supplemented with 0.1% (W/V) BSA. Then the medium was replaced with one of the conditioned media prepared as described above, and the cells were collected 10 minutes later. Total cellular proteins were extracted as described below. Similar protocol was done in parallel for PC-3 cells without using any conditioned medium (“Control”).
The cells were washed twice with an ice-cold phosphate buffer (PBS), and lysed in 200 μL of an ice-cold cell lysis solution (lysis buffer; 20 mM of Tris (pH8.0), 137 mM of NaCl, 10% of glycerol, 0.1% of SDS, 0.5% of Nonidet P-40 (trade name), 100 mM of sodium fluoride, […] of sodium orthovanadate, 1 mM of EGTA, 2 mM of phenylmethylsulfonyl fluoride, […] of leupeptin, and […] of aprotinin). The mixture was centrifuged. Subsequently, the supernatant was collected.
The resulting protein sample was subjected to SDS-PAGE in the routine manner, and the MAPK phosphorylation was determined by Western blotting using an anti-phospho-MAP kinase antibody or an anti-MAP kinase antibody) (both were purchased from Cell Signaling Technology (Beverly, Mass.)) as the detecting antibody.
From the obtained results, the expression levels of pMAPK and MAPK bands were determined using NIH image software. On the basis of the results, the pMAPK/MAPK ratio in each lane was calculated, and then the ratio (“pMAPK ratio”) of the obtained value of each lane to that of the lane 1 (“Control”) was calculated by taking the value of Control as 1.

F-1 cells = test: IL-6 secretion by primary-cultured F-1 cells (CLEIA); conditions: angiotensin II 1 μM and 10 μM alone; 24 hours
Description: The primary-cultured stromal cells (F-1 cells) derived from a patient with prostatic hypertrophy were prepared as described below.
Tissues obtained from the patient were placed in a 50 mL centrifuge tube containing 20 mL of a medium (RPMI 1640, GIBCO 11835-030) supplemented with 10% (V/V) FBS (filtron) and mg/mL penicillin/streptomycin (GIBCO 15140-122), and allowed to stand at 4° C. for 1 hour or longer. Subsequently, the tissues were placed in a 10-cm dish, and cut into pieces of about 1 mm square. Blood vessels and the like were removed. At that time, to remove excessive blood (if necessary), the tissues were washed by adding 20 mL of the medium and centrifuging the mixture for 5 minutes at 1,000 rpm, followed by aspiration of the supernatant. […]
as §1, with “CV was added as the AIIR blocker to some wells 4 hours before adding the reagents.” left out

In the case of “EGF: growth factor used to stimulate cells (NSDSECPLSHDGYCLHDGVCMYIEALDKYACNCVVGYIGERCQYRDLKWWELR; Epidermal growth factor; UniProt P01133 971-1023, looked up)”, the “number of cells vs control” value (PrSC cells [1]; EGF 10 ng/mL alone) is reported as “significant increase”, the “IL-6 secretion vs control” value (PrSC cells [2]; EGF 2.5 and 10 ng/mL alone) is reported as “dose-dependent increase” and the “number of cells vs control” value (PrSC cells [3]; EGF (10 ng/mL) alone) is reported as “significantly increased”.
With TNFα the “IL-6 secretion vs control” value (PrSC cells [2]; TNFα (1 ng/mL) alone) was “significantly promoted”, the “number of cells vs control” value (PrSC cells [4]) was “significantly increased” and the “number of cells vs control” value (PrSC cells [3]; TNFα (1 ng/mL) alone) was “significantly increased”. The “number of cells vs control” value (PrSC cells [5]; TNFα (1 ng/mL) alone, P<0.05) was “significantly increased” and the “MAPK phosphorylation in PrSC cells” value ([6]; TNFα (1 ng/mL) alone, lane 5) was “strongly activated”.
TGFβ was tested, and the “number of cells, increase vs control” value (PrSC cells [1]; TGFβ 10 ng/mL alone) was “more than 2 fold” and the “IL-6 secretion vs control” value (PrSC cells [2]; TGFβ (1 ng/mL) alone) was “significantly promoted”.
`CCCCc1nc(Cl)c(CO)n1Cc1ccc(-c2ccccc2-c2nn[nH]n2)cc1` [losartan] was tested, and the “cell proliferation, difference from control” value (PrSC cells [7]; losartan 10 μM, P<0.05) was “significant difference”, the “cell proliferation vs control” value (PrSC cells [7]; losartan 0.1, 1.0 and 10 μM) was “dose-dependently suppressed” and the “increase in the number of cells” value (PrSC cells [5]; TNFα (1 ng/mL)+losartan (10 μM), P<0.02) was “significantly suppressed”. For the same compound, the “cell proliferation vs control” value (PrSC cells [5]; losartan (10 μM) alone) was “showed no change”, the “MAPK phosphorylation in PC-3 cells” value ([8]; 0.1% BSA-CM from PrSC with angiotensin II (10 μM)+losartan (10 μM), lane 3 vs lane 2, 10 minutes) was “suppressed” and the “MAPK phosphorylation in PC-3 cells” value ([8]; 10% FCS-CM from PrSC with AIIR blocker 10 μM, no angiotensin II, lanes 5 and 6 vs lane 4, 10 minutes) was “suppressed”. The “MAPK phosphorylation in PrSC cells” value ([6]; AIIR blocker 10 μM added alone, lanes 8 and 9) was “not caused”, the “MAPK phosphorylation in PrSC cells” value ([6]; TNFα (1 ng/mL) in combination with AIIR blocker 10 μM, lanes 6 and 7, 10 minutes) was “suppressed” and the “MAPK phosphorylation in PrSC cells” value ([6]; angiotensin II (10 μM) in combination with AIIR blocker 10 μM, lanes 3 and 4, 10 minutes) was “suppressed”.
In the case of “angiotensin II (DRVYIHPF; Angiotensin-2; UniProt P01019 25-32, looked up) [stimulant added to cells]”, the “numbers of cells vs control” value (PrSC cells [1]; angiotensin II 1 μM or 10 μM alone) is reported as “concentration-dependent increase”, the “IL-6 secretion vs control” value (F-1 cells) is reported as “significant increase in a concentration-dependent manner” and the “MAPK phosphorylation in PC-3 cells” value ([8]; 0.1% BSA-CM from PrSC with angiotensin II (10 μM) alone, lane 2) is reported as “caused”. The “MAPK phosphorylation in PrSC cells” value ([6]; angiotensin II (10 μM) alone, lane 2) was “strongly activated”.
For `CCCc1nc2c(C)cc(-c3nc4ccccc4n3C)cc2n1Cc1ccc(-c2ccccc2C(=O)O)cc1` [telmisartan, 4′-{[4-methyl-6-(1-methyl-2-benzimidazolyl)-2-propyl-1-benzimidazolyl]methyl}-2-biphenylcarboxylic acid], the “increase in the number of cells” value (PrSC cells [3]; EGF (10 ng/mL)+telmisartan (50 μM)) was “significantly suppressed” and the “increase in the number of cells” value (PrSC cells [3]; TNFα (1 ng/mL)+telmisartan (50 μM)) was “significantly suppressed”.
